Test results reported in ChEMBL document CHEMBL3507680, “University of Dundee, Gates Library screen for HepG2 cell viability”.
Where “and” joins values, the source holds several entries; their conditions need not be identical. Equal values may be shown once.

Assay: Human HepG2 cell viability assay in 384 well format
Type: toxicity, cell-based
Parameters: dose 125 nL, time 70.5 hour; cytotoxicity at 70.5 h: concentration not given beside the values
Details: HepG2 cells, read-out: Inhibition

Structure (SMILES)	cytotoxicity at 70.5 h
O=C(C1CCC1)N1CCc2[nH]cnc2C12CCN(C1CCOCC1)CC2	-0.358%
Cc1ccc(OC2(C(=O)O)CCN(C(=O)c3ccsc3)CC2)cn1	-4.13%
O=C(NCc1ccco1)[C@H]1C[C@H]2OCC[C@H]2N(S(=O)(=O)C2CC2)C1	-12.2%
CCOCC1CN(C(=O)c2cnccn2)Cc2cnn(CC3CC3)c21 (stereo unspecified)	-10.4%
COc1ccc(CNC(=O)NCCCNS(C)(=O)=O)cc1OC	-8.21%
CCN(CC)c1ccc(C(=O)N(C)Cc2c(C)noc2C)cn1	-3.66%
Cc1ccc(OC2CCN(C(=O)Cc3c(C)[nH]c(=O)[nH]c3=O)CC2)cc1	-10.2%
CCc1ccc(C2CC(=O)Nc3c2c(=O)[nH]n3C(C)C)cc1 (stereo unspecified)	0.136%
COc1ccccc1CN1C[C@@H](F)[C@@H](OCc2nc3ccccc3[nH]2)C1	-0.935%
CCN(C)C[C@@H]1CN(S(=O)(=O)c2ccc(C#N)cc2)C[C@@H]1CO	-1.6%
Cc1n[nH]c2c1C(c1ccc3c(c1)OCO3)SCC(=O)N2 (stereo unspecified)	25.4%
Cc1ncc(CN2CCOC(c3ccc(-c4cc[nH]n4)cn3)C2)s1 (stereo unspecified)	-2.9%
Cc1ccc(-c2cc(CNC(=O)N3CCSCC3)on2)cc1	-1.58%
Cc1ccc(C2(C(=O)N3CCC(n4cc(C(C)O)nn4)CC3)CC2)cc1 (stereo unspecified)	-7.08%
CCNc1cc2c(nn1)CCN(C(=O)c1cccc(CSC)c1)C2	-3.17%
CCc1ccc(CN2C[C@H](OCC(=O)N(C)C)[C@H]3COC[C@H]32)o1	-0.34%
Cc1cc(C)nc(N2C[C@H]3OC(=O)N(CCc4cccc(Cl)c4)[C@H]3C2)n1	-0.529%
CC(C)=CCN1CCC(c2nnc(CN3CCN(C)CC3)n2C)CC1	35%
CC(CNCC1(S(C)(=O)=O)CCOCC1)c1ccc(F)cc1 (stereo unspecified)	9.05%
Cc1csc(CNC(=O)NCC(C)Cn2nc(C)cc2C)n1 (stereo unspecified)	-5.06%
Cn1cc(-c2cc(C(F)(F)F)n(CCCN)n2)cn1	20%
CCN1CCC2(CC1)CC(NC(=O)c1csnn1)c1ccccc1O2 (stereo unspecified)	-7.53%

Structure (SMILES)	cytotoxicity at 70.5 h
CC(=O)N1CC[C@H]2OCC[C@@H](C(=O)N3CCCCO3)[C@@H]2C1	-20.9%
OCc1cc2ccccc2nc1NCC1CC1	-4.89%
Cc1csc(C2(NC(=O)CCNC(=O)C(C)(C)C)CCCC2)n1	0.031%
CC(C)(C)c1cc(CN2C[C@@H]3CC[C@H](C2)N(Cc2ccccn2)C3)n[nH]1	-9.78%
COCCCN1CC2(CCCN(c3ncc(Cl)cc3F)C2)CCC1=O (stereo unspecified)	3.03%
Cc1cnn(CC(C)NCc2nc(-c3cccs3)no2)c1 (stereo unspecified)	-7.53%
CN(CC(=O)N(C)C1CCCCC1)Cc1nc2ccccc2c(=O)[nH]1	-6.53%
Cc1ccc(CN2CCN(C(=O)c3ccccc3O)C(C)C2=O)cc1 (stereo unspecified)	-18.7%
Cc1cccc(CN2C[C@@H]3COC[C@]3(COCC(=O)N(C)C)C2)n1	-3.44%
Cc1nc(-c2ccccc2)n(CC(=O)NC(C)C)n1	-1.29%
Cn1ccnc1C(=O)NC[C@@H]1OC[C@H]2CN(CC3CC3)CC[C@H]21	-9.31%
CN1CCN(S(=O)(=O)c2ccc(Cl)c(Cl)c2)c2cnccc21	-0.75%
O=C(CCc1ccsc1)NC1CCN(c2cccc(F)c2)CC1	4.39%
O=C(CN1CCN(c2ccc3nncn3n2)CC1)NC1CCCC1	1.25%
CCN1CC2(CCN(Cc3nc(CSC)no3)CC2)CC1=O	23.5%
O=C(c1nnn(-c2ccc(Cl)cc2)n1)N(CCO)Cc1ccccc1	-1.6%
CCn1ncc2c1C(COC)N(C(=O)c1cccs1)CC2 (stereo unspecified)	0.803%
CS(=O)(=O)N1CCC2(CC1)c1ccccc1[C@@H](N1CCSCC1)[C@@H]2O	-0.762%
COc1ccc(CCN(C)C(C(=O)O)c2ccc(F)c(C)c2)cc1OC (stereo unspecified)	9.05%
Cc1cccc(CN2CCC3(CCN(c4ccccn4)C3)C2=O)c1 (stereo unspecified)	-11.4%
CNc1ccc(CC2CCCN(C(=O)c3cnc(C)nc3)C2)nn1 (stereo unspecified)	-6.58%
O=C(C1CCCCC1)N1CCCC2(CCN(c3cnccn3)CC2)C1	23.6%

Structure (SMILES)	cytotoxicity at 70.5 h
Cc1cccc2c1OCCCC2NCc1nccn1Cc1ccccc1 (stereo unspecified)	-5.77%
c1cc(CN2CC[C@@H]3[C@@H](CO[C@H]3CN3CCOCC3)C2)cs1	-1.87%
CS(=O)(=O)NCc1cc(=O)n2c(n1)CN(CC1CC1)CCC2	7.49%
Cc1cccc(C(=O)NCc2ccc(N3CCCCC3)nc2)n1	-3.76%
COC(=O)c1ccc(C(=O)NCc2nn(C)c3c2COCC3)cc1	-4.89%
Clc1cc(CN2CCCCC2Cn2cncn2)c2ncccc2c1 (stereo unspecified)	-9.86%
O=S1(=O)CCC(S(=O)(=O)c2cccc(S(=O)(=O)N3CCOCC3)c2)C1 (stereo unspecified)	-8.35%
O=C(c1ncccc1O)N1CCc2c(ncnc2N2CCOCC2)C1	-4.02%
CN(C)CCOCC1CN(Cc2cccs2)Cc2ccnn2C1 (stereo unspecified)	-9.15%
N#CCCNC(=O)CSc1cc(F)ccc1F	-9.07%
COCCN1CCCC1c1nccnc1Nc1nccs1 (stereo unspecified)	-4.09%
Clc1ccc2c(c1)C=C(CNC1CCc3ncnn3C1)CO2 (stereo unspecified)	-7.55%
Nc1nccc(C2CCCCN2Cc2cccc(F)c2)n1 (stereo unspecified)	-2.1%
Cc1cccc(C(=O)NCc2ccc(N3CCCCCC3)nc2)n1	-6.26%
O=C(c1coc2ccccc12)N1CCCC1	-9.29%
CC(CCc1ccccc1F)C(=O)NS(=O)(=O)CC1CC1 (stereo unspecified)	-0.115%
COCCn1ccnc1CN1CCc2[nH]cnc2C1c1cnn(C)c1C (stereo unspecified)	-13.2%
COCCNC(=O)Nc1ccc(CN2CCOC2=O)cc1	-7%
CCC(=O)N1CCC(NC(=O)c2cccc(-n3ccnc3)c2)C1 (stereo unspecified)	-8.46%
O=C(Cc1cccc(O)c1)N1CCC2(CC1)c1ccccc1CC2O (stereo unspecified)	-11.7%
CC(C)OCCN1CCC(C(=O)c2cc(F)ccc2F)CC1	25%
CCC(C)c1noc(C2CCN(C(=O)c3ccccn3)CC2)n1 (stereo unspecified)	-3.62%

Structure (SMILES)	cytotoxicity at 70.5 h
CC1CN(Cc2cnn(C)c2)CCN1c1ccc2nncn2n1 (stereo unspecified)	-14.4%
COc1cccc(COCC(=O)N2CCCC(c3cc(C)[nH]n3)C2)c1 (stereo unspecified)	-14.7%
COC(=O)CN(C(=O)c1ccc(Cl)o1)c1cccc(F)c1	-11.3%
Cc1cc(=O)[nH]c(CCNC(=O)C(c2ccc(F)cc2)N(C)C)n1 (stereo unspecified)	4.61%
Cc1ccnc(SCC(=O)Nc2csc3nc(=O)c(C)nn23)n1	7.67%
O=C(Cn1c(=O)oc2ccccc21)N1Cc2cnn(CCO)c2C1	-2.5%
CCC(c1ccc(F)cc1)S(=O)(=O)CCO (stereo unspecified)	15.3%
O=C1NCCN1C1CCN(Cc2coc(-c3ccccc3)n2)CC1	20.6%
CCc1nc(N2CCCN(c3ncccn3)CC2)c2cnn(C)c2n1	-7.44%
CC(=O)N[C@H]1CCN2C(=O)[C@@H](Cc3c[nH]c4ccccc34)NC(=O)[C@H]12	-13.3%
O=C(NC1(c2cccc(F)c2)CCOCC1)c1cc[nH]n1	-4.33%
NC(=O)CCn1ccc(NCc2cc(F)ccc2Br)n1	-10.5%
Cc1nc(C)n(C2CCCN(C(=O)c3ccn(C(C)C)n3)C2)n1 (stereo unspecified)	-6.2%
CC(=O)Nn1c(C)cc(CN2CCCN(Cc3ccncc3)CC2)c1C	-0.666%
CC(=O)Nc1nc(C(=O)NCc2ccc(N3CCOC(C)C3)nc2)cs1 (stereo unspecified)	-7.71%
Cc1nc(C)n(CC2CCCN2c2ncnc3c2CCC3)n1 (stereo unspecified)	15.2%
Cn1ncc2c1CCCC2NCc1cccc(OC2CCCC2)c1 (stereo unspecified)	-5.51%
O=C1[C@@H]2CCN(Cc3ccncc3)C[C@@H]2OCCN1c1ccccc1	-8.52%
C1CCC(OCCN2CCN(CCOC3CCCCC3)CC2)CC1	-5.88%
Cc1cc(C)c(CNC(=O)NCCNc2ccccn2)c(=O)[nH]1	-9.53%
CN1CCN(C(=O)c2ccc(=O)n(C)c2)Cc2ccccc21	-2.39%
CC(NC(=O)CCOc1ccc(F)cc1)c1nnc2n1CCCCC2 (stereo unspecified)	5.98%

Structure (SMILES)	cytotoxicity at 70.5 h
CN(C)C(=O)CN1CCN(c2ccnc3c(F)ccc(F)c23)CC1	-4.33%
Cc1c(C(C)NC2CCOCC2)cnn1-c1ccc(F)cc1F (stereo unspecified)	9.85%
CCc1nc(NCC(=O)N2CCOCC2)c2c(n1)c(C)nn2CC	-9.61%
Cc1nn(C)c(N(C)C)c1CNCCOc1ccc2c(c1)OCO2	-4.86%
CC(=O)N1N=C(c2ccccc2)OC1C(=O)NCCc1cccc(Cl)c1 (stereo unspecified)	-19.7%
CC(C)Cc1noc(CN2CCCN(C(=O)c3ccccc3Cl)CC2)n1	4.22%
O=C(CCc1ccccn1)N1CCCC(N2CCNC2=O)C1 (stereo unspecified)	-14.8%
CNc1ncc(CN(C)C(=O)c2ccc(C3CCCO3)s2)cn1 (stereo unspecified)	-3.31%
O=C(NCC1(N2CCOCC2)CCSC1)Nc1ccncc1 (stereo unspecified)	-6.91%
CCOc1nnc(CN2CCC(N(C)Cc3noc(C)n3)C2)s1 (stereo unspecified)	-8.7%
O=C1CSC(C(F)(F)F)c2c(O)nn(C3CCCCC3)c2N1 (stereo unspecified)	15.2%
CC(C)c1nc(CNc2ccc(CCO)cc2)cs1	25.6%
CN(C)Cc1cnc2n1CCN(Cc1ccsc1)CC2	-2.43%
O=C(c1cccc(-c2ccc(F)cc2)c1)N1CCCC(O)(CO)CC1 (stereo unspecified)	9.52%
CC(NC(=O)NCCCn1cccn1)c1ccccn1 (stereo unspecified)	-5.57%
Cc1cccc(CS(=O)(=O)c2nnc([C@@H](N)Cc3ccccc3)o2)c1	12.4%
Cc1cnn(CC2CCCCN2C(=O)Cc2cccc(F)c2)c1 (stereo unspecified)	-10.9%
CCS(=O)(=O)NCCCNc1cc(N2CCCC2CO)ncn1 (stereo unspecified)	-4.09%
C=C1C(C)(C)[C@H]2CC[C@]1(C(=O)N1CCC(n3cc(CO)nn3)CC1)C2	-7.81%
Cn1ncc2c(N3CCC(F)(F)CC3)nc(-c3ccncc3)nc21	-13.7%
CN1CCCN(C(=O)NCc2cc(Br)cs2)CC1	-1.99%
Cc1csc2c(=O)n3c(nc12)CCN(C(=O)c1cccnc1)CC3	-19.9%

Same assay, conditions: hepg2, 70.5 h, 70.5 h

Structure (SMILES)	Inhibition
CC1=Nc2c(c(=O)[nH]n2C(C)C)C(c2ccsc2)S1 (stereo unspecified)	-5.291% and -4.016%
